“Also recorded” adds a separate entry of the source.
Tests used:
[1] = Urinary excretion after i.v. infusion; format: in vivo, Sprague-Dawley rats; conditions: rat, urine, iv, read-out: Proportion of administered dose appearing in urine
Protocol: Adult male Sprague-Dawley rats (body weight 200-230 g) were anesthetized by an intraperitoneal injection of pentobarbital (Nembutal, 7.5 mg/100 g body weight), and maintained under sedation by additional doses. The right jugular vein and the common bile duct were cannulated using PE-50 polyethylene tubing (Clay-Adams, Parsippany, N.J.). Body temperature was maintained throughout the experiment at 37° C. using a rectal probe and a thermostatically controlled heating pad (Harvard Apparatus Co., Inc., Millis, Mass.). Saline was infused at a rate of 1.0 ml/h using a Harvard pump (Harvard Apparatus Co., Inc.) into the jugular vein for a control period of 2h. After collecting two 10 minute bile samples for base-line analysis, the bile acids were individually infused intravenously (i.v.) for 30 minutes in stepwise increasing doses (0.5, 1.0, and 2.0 μmol/min/100 g body weight). Bile acid solutions were prepared in 3% human albumin in 0.45% saline. Six animals were used for each experiment and bile was collected every 10 minutes into preweighed tubes. At the end of the experiment, blood was obtained by cardiac puncture, and urine was obtained by aspiration of the bladder. All biological specimens were stored at -20° C. This animal study protocol (#1 B 10044) was approved by the Bioethics committee of the Children's Hospital Medical Center (Cincinnati, Ohio).
Negative ion fast atom bombardment-mass spectrometry (FAB-MS) spectra of bile samples, urine and synthetic compounds were obtained after placing the equivalent of approximately 1 μl of the original bile extract, 10 μl-50 μl of the urine extract and jig quantities of synthetic bile acids dissolved in methanol onto a small drop of a glycerol matrix spotted on a copper target of the FAB probe. This probe was introduced directly into the ion source of the mass spectrometer and a beam of fast atoms of either xenon generated with a saddle field atom gun (ion Tech, Teddington, Middlesex, UK) operated at 8 kV and 20 μA, or cesium generated from cesium iodine (35 kV), was fired at the target containing the sample. Negative ion spectra were obtained over the mass range of 50-1000 Da/e.
Urine collections from the six animals were pooled and the bile acids were extracted by liquid-solid extraction using a Bond Elut-C18 cartridge and bile acids were analyzed by GC-MS after solvolysis, hydrolysis and derivatization.

[2] = test system: Principal Bile Acids in Liver; experiment: Bile acid composition of liver tissue after oral administration (GC-MS); format: in vivo, Sprague-Dawley rats
Protocol: Male Sprague-Dawley rats (Harlan Sprague-Dawley, Inc., Indianapolis, Ind.), weighing 210-290 g, were maintained on a 12-hour light-dark cycle and fed standard laboratory chow ad libitum for 3 days. The animals were then transferred to metabolic cages in which they were housed individually and fed the same diet. UDCA, UDCA 3-sulfate, UDCA 7-sulfate, and UDCA 3,7-disulfate were administered by gavage at a dose of 250 mg/day for 4 consecutive days. Each group comprised 3-6 rats. Body weights of the animals were measured each day. On day 5, the animals were killed by exsanguination under ether anesthesia. Plasma was collected and frozen at -20° C. The liver was removed, rinsed in normal saline, and flash-frozen in liquid nitrogen. Urine and feces were collected every 24 hours and frozen at -20° C. All animals received humane care in compliance with the "Guide for the Care and Use of Laboratory Animals" prepared by the National Academy of Sciences (National Institutes of Health publication no. 86-23, revised in 1985).
Samples of liver (100 mg) were ground to a fine paste, and bile acids were extracted by reflux and passage through a column of Lipidex 1000 as described above for intestinal contents and feces. Group separation of bile acids, according to their mode of conjugation was achieved by lipophilic anion-exchange chromatography. Extracts from each animal were pooled, and bile acids and their conjugates were separated using Lipidex-DEAP and stepwise elution of the gel bed with the following buffers: 0.1 mol/L acetic acid in 72% ethanol (unconjugated bile acids); 0.3 mol/L acetic acid in 72% ethanol, pH 5.0 (glycine conjugates); 0.15 mol/L acetic acid in 72% ethanol, pH 6.5 (taurine conjugates); and 0.3 mol/L acetic acid in 72% ethanol, pH 9.6 (sulfate conjugates). After evaporation of the buffers, sulfated bile acids were solvolyzed, whereas amidated conjugates were hydrolyzed with 50 U of cholylglycine hydrolase (Sigma Chemical Co.) in 2.5 mL of 0.2 mol/L phosphate buffer, pH 5.6, at 37° C. overnight. The resulting unconjugated bile acids were isolated on Lipidex-DEAP, and the methyl ester-trimethylsilyl ether derivatives were prepared as described above.
GC-MS analysis was performed using a Finnigan 4635 mass spectrometer (Finnigan Inc., San Jose, Calif.) that housed an identical gas chromatography column operated under the same conditions. Electron ionization (70 eV) mass spectra were recorded over the mass range of 50-800 daltons by repetitive scanning of the eluting components. Identification of bile acids was made on the basis of the gas chromatography retention index relative to a homologous series of n-alkanes, referred to as the methylene unit value, and the mass spectrum compared with authentic standards. Quantification of bile acids was achieved using gas chromatography by comparing the peak height response of the individual bile acids with the peak height response obtained from the internal standard.
Data are expressed as mean±SEM or as mean values of all animals when extracts were pooled before analysis. Results from different groups were compared using paired and unpaired two-tailed Student's t-test. P values of <0.05 were considered statistically significant.

| Structure (SMILES) | dose excreted [1] | Chenodeoxycholic acid concentration in liver ([2]; oral gavage 250 mg/day, 4 days) | Chenodeoxycholic acid percent of hepatic bile acids ([2]; oral gavage 250 mg/day, 4 days) | Cholic acid concentration in liver ([2]; oral gavage 250 mg/day, 4 days) | Cholic acid percent of hepatic bile acids ([2]; oral gavage 250 mg/day, 4 days) | Deoxycholic acid concentration in liver ([2]; oral gavage 250 mg/day, 4 days) | Deoxycholic acid percent of hepatic bile acids ([2]; oral gavage 250 mg/day, 4 days) | Lithocholic acid concentration in liver ([2]; oral gavage 250 mg/day, 4 days) | Lithocholic acid percent of hepatic bile acids ([2]; oral gavage 250 mg/day, 4 days) | Total bile acid concentration in liver ([2]; oral gavage 250 mg/day, 4 days) | UDCA percent of hepatic bile acids ([2]; oral gavage 250 mg/day, 4 days) | Δ^22-UDCA concentration in liver ([2]; oral gavage 250 mg/day, 4 days) | Δ^22-UDCA percent of hepatic bile acids ([2]; oral gavage 250 mg/day, 4 days) | Δ^22-β-Muricholic acid concentration in liver ([2]; oral gavage 250 mg/day, 4 days) | Δ^22-β-Muricholic acid percent of hepatic bile acids ([2]; oral gavage 250 mg/day, 4 days) | Δ^22-ω-Muricholic acid concentration in liver ([2]; oral gavage 250 mg/day, 4 days) | Δ^22-ω-Muricholic acid percent of hepatic bile acids ([2]; oral gavage 250 mg/day, 4 days) | α-Muricholic acid concentration in liver ([2]; oral gavage 250 mg/day, 4 days) | α-Muricholic acid percent of hepatic bile acids ([2]; oral gavage 250 mg/day, 4 days) | β-Muricholic acid concentration in liver ([2]; oral gavage 250 mg/day, 4 days) | further results |
| --- | --- | --- | --- | --- | --- | --- | --- | --- | --- | --- | --- | --- | --- | --- | --- | --- | --- | --- | --- | --- | --- |
| C[C@H](CCC(=O)O)[C@H]1CC[C@H]2[C@@H]3[C@@H](O)C[C@@H]4C[C@H](O)CC[C@]4(C)[C@H]3CC[C@]12C [UDCA, 3 alpha, 7 beta-dihydroxy-5 beta-cholan-24oic acid, reference compound] | 0.01% | 12.4 nmol/g | 3.7% | 42.3 nmol/g | 12.7% | 22.5 nmol/g | 6.8% | 8.0 nmol/g | 2.4% | 331.8 nmol/g | 30.0% | 37.4 nmol/g | 11.3% | 20.9 nmol/g | 6.3% | 4.8 nmol/g | 1.4% | 16.1 nmol/g | 4.8% | 60.6 nmol/g | Conjugation of UDCA in liver tissue ([2]; oral): biotransformed by conjugation, mainly with taurine; also recorded: predominantly conjugated by amidation; Fold decrease of liver tissue cholic acid concentration ([2]; oral): ~4 fold; UDCA concentration in liver ([2]; oral gavage 250 mg/day, 4 days): 99.6 nmol/g; β-Muricholic acid percent of hepatic bile acids ([2]; oral gavage 250 mg/day, 4 days): 18.3%; ω-Muricholic acid concentration in liver ([2]; oral gavage 250 mg/day, 4 days): 6.3 nmol/g; ω-Muricholic acid percent of hepatic bile acids ([2]; oral gavage 250 mg/day, 4 days): 1.9%; Hepatic UDCA concentration change (in words) ([2]; oral, vs control): increased concentrations and proportions of liver tissue UDCA; also recorded: increased markedly; Hepatic lithocholic acid change (in words) ([2]; oral, vs control): increased hepatic lithocholic acid concentration |
| C[C@H](CCC(=O)O)[C@H]1CC[C@H]2[C@@H]3[C@@H](O)C[C@@H]4C[C@H](OS(=O)(=O)O)CC[C@]4(C)[C@H]3CC[C@]12C [UDCA-3S, ursodeoxycholic acid 3-sulfate] | 2.8% | 9.2 nmol/g | 2.5% | 86.6 nmol/g | 23.9% | 52.6 nmol/g | 14.5% | 3.2 nmol/g | 0.9% | 361.7 nmol/g | 15.6% | 31.3 nmol/g | 8.6% | 36.3 nmol/g | 10.0% | 6.3 nmol/g | 1.7% | 6.0 nmol/g | 1.6% | 65.4 nmol/g | β-Muricholic acid percent of hepatic bile acids ([2]; oral gavage 250 mg/day, 4 days): 18.1%; ω-Muricholic acid concentration in liver ([2]; oral gavage 250 mg/day, 4 days): 8.1 nmol/g; ω-Muricholic acid percent of hepatic bile acids ([2]; oral gavage 250 mg/day, 4 days): 2.2%; Hepatic UDCA concentration change (in words) ([2]; oral, vs control): increased concentrations and proportions of liver tissue UDCA; Conjugation of UDCA in liver tissue ([2]; oral, listed as C-3 sulfate): biotransformed by conjugation, mainly with taurine; Conjugation of UDCA in liver tissue ([2]; oral, listed as UDCA 3-sulfate): significant desulfation and amidation |
| C[C@H](CCC(=O)O)[C@H]1CC[C@H]2[C@@H]3[C@@H](OS(=O)(=O)O)C[C@@H]4C[C@H](O)CC[C@]4(C)[C@H]3CC[C@]12C [UDCA-7S, ursodeoxycholic acid 7-sulfate] | 0.9% | 6.4 nmol/g | 1.9% | 186.1 nmol/g | 56.0% | 14.9 nmol/g | 4.5% | 3.2 nmol/g | 1.0% | 332.3 nmol/g | 1.8% | 8.7 nmol/g | 2.6% | 59.8 nmol/g | 18.0% | 6.6 nmol/g | 2.0% | 0.4 nmol/g | 0.1% | 36.1 nmol/g | β-Muricholic acid percent of hepatic bile acids ([2]; oral gavage 250 mg/day, 4 days): 10.8%; ω-Muricholic acid concentration in liver ([2]; oral gavage 250 mg/day, 4 days): 4.0 nmol/g; ω-Muricholic acid percent of hepatic bile acids ([2]; oral gavage 250 mg/day, 4 days): 1.2%; Hepatic UDCA concentration change (in words) ([2]; oral, vs control): low compared with the control animals |
| C[C@H](CCC(=O)O)[C@H]1CC[C@H]2[C@@H]3[C@@H](OS(=O)(=O)O)C[C@@H]4C[C@H](OS(=O)(=O)O)CC[C@]4(C)[C@H]3CC[C@]12C [UDCA-DS, ursodeoxycholic acid 3,7-disulfate] | 2.2% | 0.7 nmol/g | 0.2% | 163.2 nmol/g | 57.7% | 17.3 nmol/g | 6.1% | 2.2 nmol/g | 0.8% | 282.7 nmol/g | 1.7% | 5.8 nmol/g | 2.0% | 23.0 nmol/g | 8.1% | 4.0 nmol/g | 1.4% | 6.5 nmol/g | 2.3% | 50.1 nmol/g | β-Muricholic acid percent of hepatic bile acids ([2]; oral gavage 250 mg/day, 4 days): 17.7%; ω-Muricholic acid concentration in liver ([2]; oral gavage 250 mg/day, 4 days): 5.0 nmol/g; ω-Muricholic acid percent of hepatic bile acids ([2]; oral gavage 250 mg/day, 4 days): 1.8%; Hepatic UDCA concentration change (in words) ([2]; oral, vs control): low compared with the control animals |
